Test results published in US10278958B2, “IPA as a protective agent” (IXCELA, INC., priority 2012, dated 2019).
Entries after “also recorded” stand apart in the source; their conditions may differ.

What was measured:
[1] = system: plasma proteins both albumin and imunoglobulins; assay type: in vitro ADME
Excerpt: (§1) IPA is an indole produced in organisms such as c. Sporogenes that have the enzyme to remove the OH from the 2 position on the propionic acid side chain of indole lactic acid an end product of tryptophan metabolism in mammalian species. It is one of several gut metabolites that affect the plasma metabolome. Other organisms such as brewers yeast also show the ability to produce IPA (Sec below a means of producing purified IPA preparations using brewers yeast or similar organisms). […] We have shown that on free radical attack the intermediate positive ion free radical binds to protein as a kynuric acid moiety. […] We also have identified two metabolites of IPA that allow monitoring of levels in excretion samples such as urine which correlate with plasma and brain levels.

whole human plasma = experiment: Binding constants for I3PA by serial additions, whole human plasma; details: whole human plasma vs ubiquitin
Excerpt: (§2) In ancillary studies we measured the parent binding constants for I3PA with whole human plasma, HSA, BSA and ubiquitin using serial additions of I3PA to determine the number of molar equivalents of binding sites and mole equivalents of free I3PA. The binding constants (pk) for whole human plasma, HSA and BSA are one the order of 10^3 or greater than for ubiquitin alone. […] Thus, efforts to increase the yield of covalently bound kynuric acid were prevented by over generation of non-covalently bound material. We then decided to attempt this Fenton reaction with I3PA using angiotensin I as the peptide target.

BSA = BSA (Bos taurus, UniProt P02769); assay type: binding
Sequence of BSA (P02769 25-607): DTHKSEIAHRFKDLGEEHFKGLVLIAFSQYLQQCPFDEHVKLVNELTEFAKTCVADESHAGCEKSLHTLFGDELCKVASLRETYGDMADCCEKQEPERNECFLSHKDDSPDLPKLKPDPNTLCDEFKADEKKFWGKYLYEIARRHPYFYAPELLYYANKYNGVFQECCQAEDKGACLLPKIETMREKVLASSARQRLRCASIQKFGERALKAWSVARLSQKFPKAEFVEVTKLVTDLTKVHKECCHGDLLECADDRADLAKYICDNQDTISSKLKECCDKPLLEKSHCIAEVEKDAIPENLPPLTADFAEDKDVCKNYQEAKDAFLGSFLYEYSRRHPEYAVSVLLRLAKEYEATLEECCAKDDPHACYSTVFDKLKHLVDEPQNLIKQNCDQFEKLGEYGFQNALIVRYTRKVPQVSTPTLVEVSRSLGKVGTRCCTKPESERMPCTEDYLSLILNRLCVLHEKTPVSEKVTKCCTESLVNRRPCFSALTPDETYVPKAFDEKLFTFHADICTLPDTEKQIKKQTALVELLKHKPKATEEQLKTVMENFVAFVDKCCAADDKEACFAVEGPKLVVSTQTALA
Excerpt: as §2

[2] = Stability of IPA in plasma at room temperature; assay type: in vitro ADME; details: after 7 days at room temperature
Excerpt: FIG. 26 illustrates the first criterion for selecting compounds for targeted methods is that is a progressive biomarkers—as shown by the trend from C to PMHD to HD in the left hand panel for IPA. A practical criterion is stability. […] Method development then involves integrating simplest preparative and instrument protocols for speed and minimum sample size and interferences. A preparative protocol using a simple 3:1 addition of methanol to plasma centrifuging and injecting supernate was matched to a mobile phase, column and detector settings allowing sensitivity to 2 ng/ml, linearity across the range and analysis with no currently determined interferences. […] The third panel illustrates the application of the method to mouse urine in a dose loading study of IPAM showing two metabolites in dosed animals (green) and the same two metabolites in un dosed mice (blue) and in human urine (red).

[3] = Distribution of gut-produced IPA to plasma, brain and CSF; assay type: in vivo, HD mouse models and human; details: for crossing of the blood-brain-barrier: gut-produced IPA, brain and CSF
Excerpt: as §1

[4] = Fenton reaction: disappearance of I3PA; assay type: physicochemical; details: 100 μM H2O2, 10 μM iron sulfate, 100 μM I3PA, 4° C. in the dark, 2 h
Experimental: The reaction mixture was kept at 4° C. in the dark. Every 30 min, a small aliquot of the reaction mixture was diluted 1:10 and injected onto the offline LC-EC array system.

brewers yeast protein = experiment: Binding of IPA to brewers yeast protein (10K MW filter) and release in HCl; assay type: physicochemical; details: supernate through a 10K MW filter
Excerpt: In yet another aspect of the disclosure we provide a method for preparation of purified indole therapies. Indoles as a class are subject to degradation and contamination such as the problem encountered with preparations of tryptophan that were related to development basal eosinophilia. Nominally pure commercial sources of indoles when evaluated using ultra-sensitive LCECA techniques show traces of other compounds from the […] to (pg/mg) levels (part per billion to sub part per trillion). These are potentially harmful. Pharmaceutical grade and supplemental tryptophan has now been brought to levels high purity that can be verified by LCECA. To take advantage of this we have developed a protocol for creating high concentrations of IPA using brewers yeast which also produces IPA with relatively good efficiency operating on a substrate of glucose and tryptophan. Brewers yeast as such is a common supplement and present as an extract in typical research mouse feed. Production of IPA in this matrix provides a highly purified IPA in a verifiably and long accepted matrix. As an example a preparation of 1 g of brewers yeast, 500 mg of glucose and 50 mg of tryptophan allowed to incubate to completion at room temperature (90-120 min) in 35 ml of distilled water yields ca. 3 mg of IPA. […]

E. coli = details: culture studies; cited from earlier work
[5] = system: Alzheimer β-amyloid protein; details: two examples of oxidative stress; cited from earlier work
[6] = system: ischemia-induced neuronal damage; details: mice and hamsters; by reducing DNA damage and lipid peroxidation; cited from earlier work
protein aggregation = details: in vitro; cited from earlier work
[7] = Loading study of IPAM in R6/2 HD mice; assay type: in vivo, mouse
Experimental: A cohort of R6/2 HD mice were dosed daily for 3 weeks intra peritoneal with 200 ug of the IPA derivative amide indole propionamide (IPAM) and compared with undosed R6/2 and their wild type littermates. Feces and urine were collected at the time of sacrifice and blood and brain after sacrifice. The data indicates: • 1. That the brain and plasma levels correlate with urinary levels and thus animals can be tracked in a drug trial without sacrifice. • 2. […] The R6/2 levels of IPA in brain and plasma are lower than in wild type mice. In this study although feces levels were lower the decrease was not significant.

ubiquitin = target: T1, ubiquitin (Homo sapiens, UniProt P0CG47); experiment: Fenton reaction of I3PA with ubiquitin, high resolution MS
T1 construct: A calculation of a theoretical value for ubiquitin ([M+H]^+ m/z 8560.6287)
Experimental: A Fenton reaction was performed using the same concentrations of hydrogen peroxide, iron sulfate and I3PA as discussed above. One microliter of a solution of ubiquitin prepared to a concentration of 10 mg/mi was added to the mixture. In addition, a separate tube containing only the Fenton reaction without ubiquitin was prepared and labeled as the negative control. The reaction was kept in the dark at 4° C. for 16 h.
(§3) High resolution MS analysis of the reaction mixtures was performed using a 12-T Qh/FT-ICR hybrid mass spectrometer (SolariX, Bruker Daltonics) that was equipped with a nanospray source operated in the positive mode. Samples were diluted 1:10 in 50/50 methanol/water, 0.5% formic acid and analyzed on the SolariX. Detection of ions in the SolariX was obtained at a resolution of approximately 110,000.

angiotensin I = target: T2, angiotensin I (Homo sapiens, UniProt P01019); experiment: Fenton reaction of I3PA with angiotensin I, MS/MS
T2 construct: attempt this Fenton reaction with I3PA using angiotensin I as the peptide target; purchased The American Peptide Co
Experimental: Angiotensin I was obtained from The American Peptide Co in Sunnyvale, Calif., USA. Six tubes were prepared with the following Fenton reaction mixtures: Tubes 1 and 4 contained 100 μM H2O2, 10 μM iron sulfate and 100 μM I3PA; Tubes 2 and 5 contained 100 μM H2O2, 100 μM iron sulfate and 100 μM I3PA. Tubes 3 and 6 contained 100 μM H2O2, 200 μM iron sulfate and 100 μM I3PA. Tubes 4, 5, and 6 also contained 1 μl of angiotensin I prepared to a concentration of 10 mg/ml. A separate tube containing only the Fenton reaction without angiotensin I was prepared and labeled as the negative control. The tubes containing the reaction mixtures were covered with aluminum wrap so that none of the reagents would deteriorate in the ambient light. All reaction mixtures were kept on ice. The tubes were left to react for 30 h.
as §3, with “1:2” for “1:10”, “acid (for positive-ion mode) or 50/50 methanol/water, 0.05% triethylamine (TEA) (VWR Scientific, PA, USA) (for negative-ion mode)” for “acid”, “and were” for “and”, “SolariX in positive and negative modes.” for “SolariX.”, “110,000. […]” for “110,000.”

With `O=C(O)CCc1c[nH]c2ccccc12` [IPA, indole-3-propionic acid] the “binding to plasma proteins” value [1] was “strongly bound to plasma proteins”, the free levels [1] was “ca. 0.1 ng/ml” and the “loading capacity of plasma for IPA” value [1] was “approximately 10 ug/ml”. The normal plasma levels [1] was “ca. 200 ug/ml”, the “binding constants (pk) relative to ubiquitin alone” value (whole human plasma) was ~10^3 and the “binding constants (pk) relative to ubiquitin alone” value (BSA) was ~10^3. The degradation in plasma [2] was 5%, the absorption ([3]; animal model and human studies) was “best adsorbed through the gut” and the “crossing of the blood-brain-barrier” value [3] was “crosses the BBB and is found in brain and CSF”. The “crossing of the blood-brain-barrier” value ([3]; listed as I3PA) was “did cross the blood-brain-barrier; also recorded: crosses the blood-brain-barrier”, the “transfer from gut to plasma” value ([3]; residual fecal levels vs plasma levels) was “majority of IPA produced is transferred to plasma” and the “oxidative stability in Fenton reaction” value [4] was “disappearance of I3PA”. For the same compound, the “IPA coordinately bound to brewers yeast protein” value (brewers yeast protein) was 75-80%, the “effect on other microbial species” value (E. coli) was “suppress other microbial species such as E. coli” and the neuroprotection [5] was “strong levels of neuroprotection”. The protection of neurons [6] was “protects neurons from ischemia-induced neuronal damage” and the “effect on protein aggregation” value (protein aggregation) was “suppress protein aggregation”.
In the case of indole propionamide [IPAM], the “conversion of IPAM to IPA” value ([7]; intra peritoneal 200 ug daily for 3 weeks, R6/2 mice, blood/plasma vs gut) is reported as “converted rapidly in the blood to IPA but less rapidly in the gut; also recorded: rapidly converted to IPA in the plasma; also recorded: converted rapidly to I3PA in plasma and less rapidly in the gut” and the urinary metabolites ([7]; mouse urine of dosed animals) is reported as “probable glucuronide type Phase II metabolite compounds”.
In the case of kynuric acid, the “binding of I3PA oxidation product to ubiquitin” value (ubiquitin) is reported as “bound both covalently and co-coordinately” and the “covalent binding site on angiotensin I” value (angiotensin I) is reported as “Tyr4”.
